The values that follow come from patent publication US20260325685A1, “Radiopharmaceutical Compositions Targeting Carbonic Anhydrase IX and Uses Thereof” (RayzeBio, Inc., priority 2023, published 2026).

The structures appear in SMILES notation. Where two headings read alike, the source gives them in different places.

One experiment addresses T1, human CA-XII (Homo sapiens, UniProt O43570).
T1 construct: purchased Creative BioMart CA12-261H
Briefly: Surface Plasmon Resonance (SPR) binding kinetics to recombinant human CA-XII (Biacore 8K, single-cycle kinetics, 1:1 binding model). As to the method: (§1) G1. Surface Plasmon Resonance Assay Conditions for hCA-IX and hCA-XII
(§2) Surface Plasmon Resonance (SPR) experiments were conducted on a Biacore 8K instrument (Cytiva, Marlborough, MA) to determine the binding kinetics of the compound to recombinant human CA-IX (Acro, CA9-H82E3) and CA-XII (Creative BioMart, CA12-261H) proteins. The ligands were diluted to 10 μg/mL in PBS-P+ buffer (20 mM phosphate buffer, pH 7.4, with 2.7 mM KCl, 137 mM NaCl, and 0.05% Tween 20) and captured on Series S Streptavidin Sensor Chips (Cytiva, 29699621) to 1200-1800 response units (RU) using a flow rate of 5 μL/min and injection times of 180 seconds for human CA-IX and 75 seconds for human CA-XII. Analyte binding was evaluated using a single-cycle kinetics method over 9 analyte concentrations (100-0.39 nM) in PBS-P+ buffer with 1% DMSO using a 50 μL/min. flow rate, 120 second association time, and 1200 second dissociation time. The flow cell temperature was set to 25° C. Analyte binding curves were fit to a 1:1 binding kinetic model in Biacore Insight Evaluation software (version 4.0.8.20368) following reference flow cell subtraction and DMSO correction to derive the association and dissociation binding constants.
For orientation: In SPR one partner is held on a chip, and binding of the other changes the refractive index at the surface.

A further experiment deals with T2, human CA-IX (Homo sapiens, UniProt Q16790).
T2 construct: purchased Acro CA9-H82E3
Kind of experiment: Surface Plasmon Resonance (SPR) binding kinetics to recombinant human CA-IX (Biacore 8K, single-cycle kinetics, 1:1 binding model). As to the method:
as §1, §2

Where [1] appears, read: Chelated Metal: Lu-175, 25° C., pH 7.4, read-out: CAXII KD.
[2] abbreviates: Chelated Metal: Lu-175; SPR, 25° C., pH 7.4; read-out: CAIX KD.
[3] abbreviates: read-out: CAXII KD, Chelated Metal: Lu-175, 25° C., pH 7.4.
Where [4] appears, read: read-out: CAIX KD; Chelated Metal: Lu-175; SPR, 25° C., pH 7.4.

T1 sequence (O43570 25-354): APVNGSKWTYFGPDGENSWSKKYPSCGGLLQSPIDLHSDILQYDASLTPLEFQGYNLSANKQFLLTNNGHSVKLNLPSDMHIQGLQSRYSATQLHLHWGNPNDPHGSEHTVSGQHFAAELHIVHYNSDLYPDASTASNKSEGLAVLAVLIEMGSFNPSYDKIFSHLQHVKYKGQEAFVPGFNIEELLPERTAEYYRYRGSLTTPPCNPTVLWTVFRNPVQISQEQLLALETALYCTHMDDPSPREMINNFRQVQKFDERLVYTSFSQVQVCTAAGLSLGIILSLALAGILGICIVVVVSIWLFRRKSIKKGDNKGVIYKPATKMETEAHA

As usually defined, the Kd is the free concentration of one partner at which half of the binding sites on the other are occupied at equilibrium, for simple one-to-one binding. For the compound `Cc1cc(C(=O)Nc2nnc(S(N)(=O)=O)s2)ccc1-c1cn(CCNC(=O)C2(NC(=O)CNC(=O)C3(C(N)=O)CCN(C(=O)CCCC(C)(c4ccc(O)cc4)c4ccc(O)cc4)CC3)CCN(C(=O)CN3CCN(CC(=O)O)CCN(CC(=O)O)CCN(CC(=O)O)CC3)CC2)nn1.[Lu+3]` [Compound 117.7], the Kd on human CA-XII (setting [1]) was greater than 10 nM; at human CA-IX (setting [2]), less than 1 nM.

In the case of `NS(=O)(=O)c1nnc(NC(=O)C23CC(c4cn(CCNC(=O)[C@@H]5CN(C(=O)CN6CCN(CC(=O)O)CCN(CC(=O)O)CC6)CCN5C(=O)C[C@H](NC(=O)C[C@H](NC(=O)c5ccc(C6CC6)cn5)C(=O)O)C(=O)O)nn4)(C2)C3)s1.[Cu+2]` [Compound 126.2], the dissociation constant Kd at human CA-XII (Chelated Metal: Cu (cold), 25° C., pH 7.4, read-out: CAXII KD) was 2.5 to 10 nM; at human CA-IX (Chelated Metal: Cu (cold); SPR, 25° C., pH 7.4; read-out: CAIX KD), less than 1 nM.

For the compound `CC(CCCC(=O)N1CCC(C(N)=O)(C(=O)NCC(=O)N2CCN(C(=O)CC[C@H](C(=O)O)N3CCN(CC(=O)O)CCN(CC(=O)O)CCN(CC(=O)O)CC3)C[C@H]2C(=O)NCCn2cc(C34CC(C(=O)Nc5nnc(S(N)(=O)=O)s5)(C3)C4)nn2)CC1)(c1ccc(O)cc1)c1ccc(O)cc1.[Lu+3]` [Compound 127.1], the Kd on human CA-XII (setting [1]) is greater than 10 nM; at human CA-IX (setting [2]), less than 1 nM.

For `CC(CCC(=O)N[C@@H](CC(=O)N[C@@H](CC(=O)NC1(CCCCn2cc(CCCC(=O)Nc3nnc(S(N)(=O)=O)s3)nn2)CCN(C(=O)CN2CCN(CC(=O)O)CCN(CC(=O)O)CCN(CC(=O)O)CC2)CC1)C(=O)O)C(=O)O)(c1ccc(O)cc1)c1ccc(O)cc1.[Lu+3]` [Compound 116], the Kd at human CA-XII (setting [3]) was in the range of 2.5 to 10 nM; at human CA-IX (setting [4]) it was 1 to 2.5 nM.

Turning to `NS(=O)(=O)c1nnc(NC(=O)C23CC(c4cn(CCNC(=O)[C@@H]5CN(C(=O)CN6CCN(CC(=O)O)CCN(CC(=O)O)CCN(CC(=O)O)CC6)CCN5C(=O)C[C@H](NC(=O)C[C@H](NC(=O)Cc5ccc(C6CC6)cc5)C(=O)O)C(=O)O)nn4)(C2)C3)s1` [Compound 109.63], the Kd on human CA-XII (Chelated Metal: None, 25° C., pH 7.4, read-out: CAXII KD) is 2.5 to 10 nM; at human CA-IX (Chelated Metal: None; SPR, 25° C., pH 7.4; read-out: CAIX KD), less than 1 nM. Further, at human CA-IX (KD ratio CAXII/CAIX; Chelated Metal: None), the “Ratio (CAXII/CAIX)” value is listed as “*** (10 < *** ≤ 50)”.

For `CC(CCCC(=O)N1CCOC[C@H]1C(=O)N[C@@H](CC(=O)N1CCN(C(=O)CCOCCOCCOCCOCCN(CCOCCOCCOCCOCCC(=O)N2CCN(C(=O)C[C@H](NC(=O)[C@@H]3COCCN3C(=O)CCCC(C)(c3ccc(O)cc3)c3ccc(O)cc3)C(=O)O)[C@@H](C(=O)NCCn3cc(C45CC(C(=O)Nc6nnc(S(N)(=O)=O)s6)(C4)C5)nn3)C2)C(=O)CNC(=O)CN2CCN(CC(=O)O)CCN(CC(=O)O)CCN(CC(=O)O)CC2)C[C@@H]1C(=O)NCCn1cc(C23CC(C(=O)Nc4nnc(S(N)(=O)=O)s4)(C2)C3)nn1)C(=O)O)(c1ccc(O)cc1)c1ccc(O)cc1.[Lu+3]` [Compound 131.3], the Kd at human CA-XII (setting [1]) and on human CA-IX (setting [2]) was less than 1 nM in each case.

For the compound `NS(=O)(=O)c1nnc(NC(=O)C23CC(c4cn(C[C@H]5CN(C(=O)CN6CCN(CC(=O)O)CCN(CC(=O)O)CCN(CC(=O)O)CC6)CCN5C(=O)CNC(=O)C5(C(=O)O)CCN(C(=O)Cc6n[nH]c7ccccc67)CC5)nn4)(C2)C3)s1.[Lu+3]` [Compound 112.17], the Kd at human CA-XII (setting [1]) was 1 to 2.5 nM; on human CA-IX (setting [2]) it was less than 1 nM.

Turning to `CC(CCCC(=O)N1CCC(C(=O)O)(C(=O)NCC(=O)N2CCN(C(=O)CN3CCN(CC(=O)O)CCN(CC(=O)O)CCN(CC(=O)O)CC3)C[C@H]2C(=O)NCCn2cc(C34CCC(C(=O)Nc5nnc(S(N)(=O)=O)s5)(CC3)CC4)nn2)CC1)(c1ccc(O)cc1)c1ccc(O)cc1.[Lu+3]` [Compound 107.9], the Kd is 1 to 2.5 nM at human CA-XII (setting [1]) and less than 1 nM at human CA-IX (setting [2]).

For `CC(CCC(=O)N[C@@H](CC(=O)N[C@@H](CC(=O)NC1(CCCCn2cc(CCC(=O)Nc3nnc(S(N)(=O)=O)s3)nn2)CCN(C(=O)OCCOCCNC(=O)CN2CCN(CC(=O)O)CCN(CC(=O)O)CCN(CC(=O)O)CC2)CC1)C(=O)O)C(=O)O)(c1ccc(O)cc1)c1ccc(O)cc1.[Lu+3]` [Compound 116.4], the Kd was greater than 10 nM on human CA-XII (setting [1]) and 2.5 to 10 nM at human CA-IX (setting [2]).

As for `NS(=O)(=O)c1nnc(NC(=O)C23CCC(c4cn(CCNC(=O)[C@@H]5CN(C(=O)CN6CCN(CC(=O)O)CCN(CC(=O)O)CCN(CC(=O)O)CC6)CCN5C(=O)CC[C@H](NC(=O)C[C@H](NC(=O)c5n[nH]c6ccccc56)C(=O)O)C(=O)O)nn4)(CC2)CC3)s1.[Lu+3]` [Compound 109.50], the Kd at human CA-XII (setting [1]) and at human CA-IX (setting [2]) was less than 1 nM in each case.

For the compound `CC(CCC(=O)N[C@@H](CC(=O)N[C@@H](Cc1cn([C@@H](CCCCn2cc(C34CCC(C(=O)Nc5nnc(S(N)(=O)=O)s5)(CC3)CC4)nn2)C(=O)NCCOCCOCCNC(=O)CN2CCN(CC(=O)O)CCN(CC(=O)O)CCN(CC(=O)O)CC2)nn1)C(=O)O)C(=O)O)(c1ccc(O)cc1)c1ccc(O)cc1.[Lu+3]` [Compound 101], the dissociation constant Kd on human CA-XII (setting [3]) and on human CA-IX (setting [4]) was less than 1 nM in each case.

For `CC(CCC(=O)N[C@@H](CC(=O)N[C@@H](CC(=O)N1CCN(C(=O)CN2CCN(CC(=O)O)CCN(CC(=O)O)CCN(CC(=O)O)CC2)C[C@H]1C(=O)NCCn1cc(C23CC(C(=O)Nc4nnc(S(N)(=O)=O)s4)(C2)C3)nn1)C(=O)O)C(=O)O)(c1ccc(O)cc1)c1ccc(O)cc1.[Lu+3]` [Compound 106], the Kd was 2.5 to 10 nM at human CA-XII (setting [3]) and less than 1 nM at human CA-IX (setting [4]).

`NS(=O)(=O)c1nnc(NC(=O)C23CC(c4cn(CCNC(=O)[C@@H]5CN(C(=O)CN6CCN(CC(=O)O)CCN(CC(=O)O)CCN(CC(=O)O)CC6)CCN5C(=O)C[C@H](NC(=O)C[C@H](NC(=O)c5ccc(C6CC6)nn5)C(=O)O)C(=O)O)nn4)(C2)C3)s1.[Lu+3]` [Compound 109.4]: the Kd on human CA-XII (setting [1]) is 2.5 to 10 nM; at human CA-IX (setting [2]), less than 1 nM.

In the case of `NS(=O)(=O)c1nnc(NC(=O)C23CC(c4cn(CCNC(=O)[C@@H]5CN(C(=O)CN6CCN(CC(=O)O)CCN(CC(=O)O)CCN(CC(=O)O)CC6)CCN5C(=O)C[C@H](NC(=O)C[C@H](NC(=O)c5n[nH]c6ccccc56)C(=O)O)C(=O)O)nn4)(C2)C3)s1.[Lu+3]` [Compound 109.7], the Kd on human CA-XII (setting [1]) was 2.5 to 10 nM; on human CA-IX (setting [2]), less than 1 nM.

With `CC(CCC(=O)N[C@@H](CC(=O)N[C@@H](CC(=O)N[C@@H](CCCn1cc(C2CCC(C(=O)Nc3nnc(S(N)(=O)=O)s3)CC2)nn1)C(=O)NCCOCCOCCNC(=O)CN1CCN(CC(=O)O)CCN(CC(=O)O)CCN(CC(=O)O)CC1)C(=O)O)C(=O)O)(c1ccc(O)cc1)c1ccc(O)cc1.[Lu+3]` (stereo partly shown) [Compound 100.3], the results for the Kd on human CA-XII (setting [1]) and on human CA-IX (setting [2]) were 2.5 to 10 nM and less than 1 nM, respectively.

As to `NS(=O)(=O)c1nnc(NC(=O)C23CC(c4cn(CCNC(=O)[C@@H]5CN(C(=O)CN6CCN(CC(=O)O)CCN(CC(=O)O)CCN(CC(=O)O)CC6)CCN5C(=O)CNC(=O)C5(C(=O)O)CCN(C(=O)c6n[nH]c7ccccc67)CC5)nn4)(C2)C3)s1.[Lu+3]` [Compound 112.10], the Kd was greater than 10 nM at human CA-XII (setting [1]) and less than 1 nM on human CA-IX (setting [2]).

On to `CC(C)(C)c1ccc(CC(=O)N[C@@H](CC(=O)N[C@@H](CC(=O)N2CCN(C(=O)CN3CCN(CC(=O)O)CCN(CC(=O)O)CCN(CC(=O)O)CC3)C[C@H]2C(=O)NCCn2cc(C34CC(C(=O)Nc5nnc(S(N)(=O)=O)s5)(C3)C4)nn2)C(=O)O)C(=O)O)cc1.[Lu+3]` [Compound 109.27], for which the figures for the Kd on human CA-XII (setting [1]) and on human CA-IX (setting [2]) were 2.5 to 10 nM and 1 to 2.5 nM, respectively.

Turning to `NS(=O)(=O)c1nnc(NC(=O)C23CC(c4cn(CCNC(=O)[C@@H]5CN(C(=O)CN6CCN(CC(=O)O)CCN(CC(=O)O)CCN(CC(=O)O)CC6)CCN5C(=O)CNC(=O)C5(C(=O)O)CCN(C(=O)c6ccc(C7CC7)cc6)CC5)nn4)(C2)C3)s1.[Lu+3]` [Compound 112.9], the Kd on human CA-XII (setting [1]) was greater than 10 nM; on human CA-IX (setting [2]), less than 1 nM.

For the compound `NS(=O)(=O)c1nnc(NC(=O)C23CC(c4cn(CCNC(=O)[C@@H]5CN(C(=O)CN6CCN(CC(=O)O)CCN(CC(=O)O)CCN(CC(=O)O)CC6)CCN5C(=O)C[C@H](NC(=O)C[C@H](NC(=O)c5ccc(C(F)(F)F)cc5)C(=O)O)C(=O)O)nn4)(C2)C3)s1.[Lu+3]` [Compound 109.35], the results for the Kd at human CA-XII (setting [1]) and at human CA-IX (setting [2]) were 2.5 to 10 nM and 1 to 2.5 nM, respectively.

With `CC(CCC(=O)N[C@@H](CC(=O)N[C@@H](CC(=O)N1CCN(C(=O)CN2CCN(CC(=O)O)CCN(CC(=O)O)CCN(CC(=O)O)CC2)C[C@H]1C(=O)NCCn1cc(C23CC(C(=O)Nc4nnc(S(N)(=O)=O)s4)(C2)C3)nn1)C(N)=O)C(N)=O)(c1ccc(O)cc1)c1ccc(O)cc1.[Lu+3]` [Compound 107.47], the Kd on human CA-XII (setting [1]) was greater than 10 nM; at human CA-IX (setting [2]) it was 1 to 2.5 nM.

As for `NS(=O)(=O)c1nnc(NC(=O)C23CC(c4cn(CCNC(=O)[C@@H]5CN(C(=O)CN6CCN(CC(=O)O)CCN(CC(=O)O)CCN(CC(=O)O)CC6)CCN5C(=O)C[C@H](NC(=O)C[C@H](NC(=O)CC5CC6(CCC6)C5)C(=O)O)C(=O)O)nn4)(C2)C3)s1.[Lu+3]` [Compound 109.18], the Kd on human CA-XII (setting [1]) is 1 to 2.5 nM; at human CA-IX (setting [2]), less than 1 nM.
